# Laboratory results: ChEMBL document CHEMBL3046668, “Phytoene desaturase inhibition by O-(2-phenoxy)ethyl-N-aralkylcarbamates” (J Agric Food Chem, 2003)
# Target: 15-cis-phytoene desaturase (Synechococcus elongatus (strain PCC 7942) (Anacystis nidulans R2), UniProt P26294)
# Assay: Inhibition of Synechococcus PCC 7942 phytoene desaturase expressed in Escherichia coli JM101 using phytoene as substrate after 8 hr by Dixon plot analysis
# Conditions: read-out: I50
# 15-cis-phytoene desaturase, sequence (P26294 whole entry): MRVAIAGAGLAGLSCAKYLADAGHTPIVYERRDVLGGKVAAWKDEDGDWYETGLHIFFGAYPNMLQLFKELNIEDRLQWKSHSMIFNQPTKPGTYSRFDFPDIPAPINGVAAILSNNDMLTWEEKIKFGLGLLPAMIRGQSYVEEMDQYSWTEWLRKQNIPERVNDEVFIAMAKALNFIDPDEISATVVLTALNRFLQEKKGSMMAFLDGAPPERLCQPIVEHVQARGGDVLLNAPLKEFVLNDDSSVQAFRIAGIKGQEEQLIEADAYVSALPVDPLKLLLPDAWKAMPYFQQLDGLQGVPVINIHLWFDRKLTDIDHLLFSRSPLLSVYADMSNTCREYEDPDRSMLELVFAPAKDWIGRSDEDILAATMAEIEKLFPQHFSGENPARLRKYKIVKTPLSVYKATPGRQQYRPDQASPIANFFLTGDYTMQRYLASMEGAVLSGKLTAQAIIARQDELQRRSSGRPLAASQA
smiles,measurement,value
CCC(COc1cccc(C(F)(F)F)c1)OC(=O)NCc1ccccc1 (stereo not drawn),IC50,13 nM
CNc1cnn(-c2cccc(C(F)(F)F)c2)c(=O)c1Cl [NORFLURAZONE],IC50,29 nM
CCC(CSc1cccc(Cl)c1)OC(=O)NCc1ccccc1 (stereo not drawn),IC50,5400 nM
